In US20160115540A1, “PRODRUGS AND DRUGS” (Biogen MA Inc., priority 2013, published 2016):
Counter-ions that a name gives are not always drawn.

Tested on: brain
Assay: Transcriptional profiling, multi-dosing regimen, naïve mice: brain
Type: in vivo
Conditions: for FC: BRAIN_HEMI, 100MMF-vs-Veh
Method: In vivo, DMF is rapidly metabolized to monomethyl fumarate (MMF). […] Animals were exposed to CO2 and whole blood collected via cardiac puncture. Two 100 μl aliquots of whole blood were collected in 1.5 mL microcentrifuge tubes and snap frozen in liquid nitrogen. Peripheral (liver, spleen, kidney and jejunum) and CNS brain (cerebellum, hippocampus, striatum and cortex) tissues were harvested and snap frozen in liquid nitrogen, with special care taken to collect tissues of similar size and from the same location. All samples were stored at -80° C. until RNA extraction was conducted. For RNA preparation, frozen tissues were placed in 2 mL RNAse-free 96-well blocks with 1.5 mL QIAzol Lysis Reagent (QIAgen) and a 3.2 mm stainless steel bead (BioSpec Products, Bartlesville, Okla.). Tissues were disrupted for four cycles of 45 seconds in a Mini-Beadbeater (Biospec Products). RNA was extracted in chloroform and the aqueous phase was mixed with an equal volume of 70% ethanol. Extracted RNA was applied to RNeasy 96 plates and purified by the spin method according to the manufacturer's protocol (RNeasy 96 Universal Tissue Protocol, QIAgen, Hilden Germany). […] Two micrograms of biotin labeled […] probe were hybridized to Affymetrix GeneChip Affymetrix HT_MG-430_PM plate arrays with modified conditions as described in […] et al. Washing and staining of the hybridized arrays were completed as described in the GeneChip Expression analysis technical manual for HT plate arrays using the Genechip® Array Station (Affymetrix, Santa Clara, Calif.) with modifications as described in […] et al. The processed GeneChip® plate arrays were scanned using GeneTitan scanner (Affymetrix, Santa Clara, Calif.). Affymetrix scans were subject to quality control (QC) measures. These tests included a visual inspection of the distribution of raw signal intensities and an assessment of RNA degradation, relative log expression (RLE), and normalized unsealed standard error (NUSE). All sample scans that passed these QC metrics were included in the analysis. All CEL files were subjected to GC-content-based Robust Multi-array Average (GCRMA) normalization (version 2.20.0) (Irizarry R A, et al. Nucleic Acids Res 2003; 31:e15; Li C, et al. […] Stat Appl Genet Mol Biol 2004; 3:Article3). […] Springer Science+Business Media 2005). Changes in gene expression were studied by applying a linear modeling approach to fit gene expression levels according to the defined groups of samples (e.g. DMF-, MMF-, and Vehicle-treated animals) and Bayesian posterior error analysis as implemented by Smyth (Smyth G K. Stat Appl Genet Mol Biol 2004; 3:Article3). The comparisons considered included: DMF-vs-MMF, DMF-vs-Vehicle, and MMF-vs-Vehicle. […] Very few DEGs are observed in blood and tissues derived from the central nervous system (brain, cerebellum, cortex, striatum, and spinal cord).

COC(=O)/C=C/C(=O)O [MMF, monomethyl fumarate]
FC (0610037L13Rik 1429879_PM_at): −1.51
FC (1436646_PM_at (no gene symbol)): −1.53
FC (1437987_PM_at (no gene symbol)): −1.66
FC (1438259_PM_at (no gene symbol)): −1.59
FC (2310079F09Rik 1433201_PM_at): 2.17
FC (2610021A01Rik 1438786_PM_a_at): −1.90
FC (2610044O15Rik 1428693_PM_at): −1.52
FC (2900062L11Rik 1428333_PM_at): −1.50
FC (4930432O21Rik 1434625_PM_at): −1.66
FC (4930453N24Rik 1438553_PM_x_at): −1.61
FC (4933421E11Rik 1428162_PM_at): −1.50
FC (A730017C20Rik 1437528_PM_x_at): −2.06
FC (AI597468 1433897_PM_at): −1.51
FC (AI747699 1433914_PM_at): −2.28
FC (Abi1 1438506_PM_s_at): −2.04
FC (Acad9 1429581_PM_at): −1.55
FC (Akr1a4 1430123_PM_a_at): −1.75
FC (Aldh9a1 1436689_PM_a_at): −1.63
FC (Aldh18a1 1437325_PM_x_at): −1.51
FC (Ampd2 1438941_PM_x_at): −1.76
FC (Apex1 1437715_PM_x_at): −1.52
FC (Appl1 1436116_PM_x_at): −1.62
FC (Arhgap21 1428369_PM_s_at): −1.66
FC (Atp13a5 1436411_PM_at): −1.51
FC (Atxn10 1438653_PM_x_at): −1.69
FC, Depp (1433836_PM_a_at) (BrainHemi, multi-dosing, MMF-vs-Vehicle): −1.01
FC (Btg1 /// LOC100047353 1437455_PM_a_at): −1.55
FC (Cadm2 1429211_PM_at): −1.76
FC (Cadm2 1435146_PM_s_at): −2.25
FC (Cherp 1436885_PM_a_at): −1.99
FC (Chuk 1428210_PM_s_at): −1.68
FC (Clcc1 1436390_PM_a_at): −1.64
FC (Clvs1 1433906_PM_at): −1.54
FC (Cpt1a 1434866_PM_x_at): −1.81
FC (Cttnbp2 1435435_PM_at): −1.75
FC (Dab2 1429693_PM_at): 1.53
FC (Ddx5 1438371_PM_x_at): −1.52
FC (Derl1 1437723_PM_s_at): −1.51
FC (Dnpep 1438557_PM_x_at): −1.50
FC (Enoph1 1437327_PM_x_at): −1.62
FC (Fam13c 1436761_PM_s_at): −1.83
FC (Fbxo11 1434108_PM_at): −1.50
FC (Gm5256 /// Gm5529 /// Slc25a5 1438360_PM_x_at): −1.53
FC (Gm5256 /// Gm5529 /// Slc25a5 1438922_PM_x_at): −1.51
FC (Gm6159 /// Hnrnpr 1437526_PM_x_at): −1.61
FC (Gm11793 /// Hnrnpf 1437099_PM_x_at): −1.53
FC (Gm13342 /// Gm15776 /// Gm3150 /// Gng5 /// LOC100044719 1436946_PM_s_at): −1.70
FC (Gm14288 1429712_PM_at): −1.68
FC (Gns 1433488_PM_x_at): −2.01
FC (Gria4 1436772_PM_at): −1.57
FC (Hadhb 1437172_PM_x_at): −1.86
FC (Hbxip 1436152_PM_a_at): −1.65
FC (Higd1c /// Mettl7a1 /// Mettl7a2 1434150_PM_a_at): −1.60
FC (Hnrpdl 1428224_PM_at): −1.60
FC (Hs3st2 1438624_PM_x_at): −1.86
FC (Impa1 1436848_PM_x_at): −1.55
FC (Ing1 1433267_PM_at): 1.53
FC (Ipo4 1436420_PM_a_at): −1.64
FC (Itgb8 1436223_PM_at): −1.59
FC (LOC100047324 /// Sesn1 1438931_PM_s_at): −1.97
FC (Laptm4b 1436915_PM_x_at): −1.68
FC (Lasp1 1438634_PM_x_at): −1.50
FC (Mettl9 1438171_PM_x_at): −1.63
FC (Mthfd2l 1429599_PM_a_at): −1.71
FC (Ncoa2 1435233_PM_at): −1.55
FC (Ndufb6 1434056_PM_a_at): −1.56
FC (Nelf 1436959_PM_x_at): −1.65
FC (Nxph1 1436718_PM_at): −1.56
FC (Paics 1436298_PM_x_at): −1.57
FC (Paqr3 1429216_PM_at): −1.56
FC (Phyhipl 1437062_PM_s_at): −1.69
FC (Pisd-ps1 /// Pisd-ps3 1436944_PM_x_at): −2.43
FC (Pofut2 1437845_PM_x_at): −1.98
FC (Poldip3 1437837_PM_x_at): −1.74
FC (Polr3a 1437525_PM_a_at): −1.76
FC (Ppip5k2 1433856_PM_at): −1.57
FC (Prkg2 1435162_PM_at): −1.69
FC (Prss23 1437671_PM_x_at): −1.74
FC (Ptpdc1 1433823_PM_at): −1.59
FC (Ptpn2 1438562_PM_a_at): −1.74
FC (Rgs19 1434940_PM_x_at): −1.51
FC (Rif1 1429490_PM_at): −1.82
FC (Rnf14 1437035_PM_x_at): −1.68
FC (Rnf157 1434427_PM_a_at): −1.67
FC (Sfrs13b 1437168_PM_at): −1.66
FC (Slc9a3r1 1438115_PM_a_at): −1.85
FC (Slc12a6 1436989_PM_s_at): −1.80
FC (Snx16 1438803_PM_s_at): −1.55
FC (Sp4 1437508_PM_at): −1.54
Number of differentially expressed genes identified: Brain Hemi (Table 13: Naïve, Single Dose (so in the source), 90 mpk MMF-vs-Vehicle, 12 h after last dosing): 280
FC (Tchh 1434425_PM_at): −1.64
FC (Tmem41b 1428586_PM_at): −1.89
FC (Tox3 1436600_PM_at): −1.56
FC (Trim9 1434249_PM_s_at): −1.58
FC (Ttc14 1437878_PM_s_at): −1.64
FC (Tubgcp4 1433659_PM_at): −1.54
FC (Uba2 1437278_PM_a_at): −1.50
FC (Uba3 1435164_PM_s_at): −1.65
FC (Zdhhc20 1434236_PM_at): −1.64
FC (Zfp110 1437236_PM_a_at): −1.77
FC (Zfp260 1436495_PM_s_at): −1.65
FC (Zfp788 1429371_PM_at): −1.65
